Measured values: ChEMBL document CHEMBL1147603, “Fluoropyrrolidine amides as dipeptidyl peptidase IV inhibitors” (Bioorg Med Chem Lett, 2004)

Experiments:
[1] = (§1) Volume of distribution at steady state was determined after 1 mg/kg (i.v.) / 2 mg/kg (p.o.) of compound administration; format: ADME, organism-based, Canis lupus familiaris; conditions: dog, in vivo, iv, read-out: Vdss
[2] = (§2) Plasma clearance was determined after 1 mg/kg (i.v.) / 2 mg/kg (p.o.) of compound administration; format: ADME, organism-based; conditions: rat, iv, read-out: Clp
[3] = (§3) Half-life period was determined after 1 mg/kg (i.v.) / 2 mg/kg (p.o.) of compound administration; format: ADME, organism-based; conditions: rat, in vivo
[4] = (§4) Maximum plasma concentration reached by compound was determined after 2 mg/kg (p.o.) administration; format: ADME, organism-based, Canis lupus familiaris; parameters: dose 2 mg/kg, route oral; conditions: dog, po
[5] = as §3; format: ADME, organism-based, Canis lupus familiaris; conditions: dog, in vivo
[6] = as §4; format: ADME, organism-based; parameters: dose 2 mg/kg, route oral; conditions: rat, po
[7] = as §1; format: ADME, organism-based; conditions: rat, in vivo, iv, read-out: Vdss
[8] = as §2; format: ADME, organism-based, Canis lupus familiaris; conditions: dog, iv, read-out: Clp

Vd [1]: 4.4 L/kg
clearance [2]: 24 mL/min/kg
half-life [3]: 1.6 h
Cmax [4]: 1000 nM
half-life [5]: 5.9 h
Cmax [6]: 400 nM
Vd [7]: 2.5 L/kg
clearance [8]: 9.1 mL/min/kg
SMILES: N[C@H](C(=O)N1CC[C@H](F)C1)[C@H]1CC[C@H](NS(=O)(=O)c2ccc(F)cc2F)CC1
